Data reported in ChEMBL document CHEMBL1129058, “Indole inhibitors of human nonpancreatic secretory phospholipase A2. 2. Indole-3-acetamides with additional functionality” (J Med Chem, 1996).
Values joined by “and” are separate entries in the source; they are usually repeats but may differ in a detail not shown here. Equal entries are not always repeated.

species: Cavia porcellus; test: Effective dose of compound against contraction of Guinea pig lung tissue with arachidonic acid.; type: functional; conditions: not given

SMILES	ED50 [µM]
NC(=O)Cc1c(Br)n(Cc2ccccc2)c2cc(Cl)c(OCCCC(=O)O)cc12	>10
CCc1c(CC(N)=O)c2cc(OCCCS(=O)(=O)O)ccc2n1Cc1ccccc1	>10
Cc1c(CC(N)=O)c2cc(OCCCP(=O)(O)O)ccc2n1Cc1ccccc1-c1ccccc1	>10
CCc1c(CC(N)=O)c2cc(OCCCP(=O)(O)O)ccc2n1Cc1ccccc1	>10
Cc1c(CC(N)=O)c2cc(OCc3ccccc3C(=O)O)ccc2n1Cc1ccccc1	>10
Cc1c(CC(N)=O)c2cc(OCC(=O)O)ccc2n1Cc1ccccc1	>30
NC(=O)Cc1c(Br)n(Cc2ccccc2)c2ccc(OCCCC(=O)O)cc12	>10
Cc1c(CC(=O)NN)c2cc(OCCCC(=O)O)ccc2n1Cc1ccccc1	>30
Cc1c(CC(N)=O)c2c(OCC(=O)O)cccc2n1Cc1ccccc1	>10
NC(=O)Cc1c(Cl)n(Cc2ccccc2)c2ccc(OCCCC(=O)O)cc12	>30
Cc1c(CC(N)=O)c2cc(OCCCCC(=O)O)ccc2n1Cc1ccccc1	>30
NC(=O)Cc1c(Br)n(Cc2ccccc2)c2ccc(OCCCP(=O)(O)O)cc12 [listing 1 of 3 here]	>10
CCc1c(CC(N)=O)c2cc(OCCCC(=O)O)ccc2n1Cc1ccccc1	>10
CCc1c(CC(N)=O)c2cc(OCCCP(=O)(O)OC)ccc2n1Cc1ccccc1	>10
Cc1c(CC(=O)NN)c2cc(OCCCP(=O)([O-])[O-])ccc2n1Cc1ccccc1.[Na+].[Na+]	>10
CSc1c(CC(N)=O)c2cc(OCCCC(=O)O)ccc2n1Cc1ccccc1	>10
Cc1c(CC(N)=O)c2cc(OCCC(=O)O)ccc2n1Cc1ccccc1	>30
CCc1c(CC(N)=O)c2c(OCC(=O)O)cccc2n1Cc1ccccc1	>3
Cc1c(CC(N)=O)c2cc(OCCCC(=O)O)ccc2n1Cc1ccccc1	>30
Cc1c(CC(N)=O)c2cc(OCCCP(=O)(O)O)ccc2n1Cc1ccccc1	>10
CCOC(=O)CCCCOc1ccc2c(CC(N)=O)c(C)n(Cc3ccccc3)c2c1	>30
Cc1c(CC(N)=O)c2c(OCP(=O)(O)O)cccc2n1Cc1ccccc1	>10

biological target: T1, Phospholipase A2, membrane associated (Homo sapiens) (UniProt P14555); test: Inhibitory activity against contraction of Guinea pig lung tissue induced by PLA2.; type: functional, tissue-based; conditions: Cavia porcellus, target entry is the homologue from another species
T1 sequence (whole entry): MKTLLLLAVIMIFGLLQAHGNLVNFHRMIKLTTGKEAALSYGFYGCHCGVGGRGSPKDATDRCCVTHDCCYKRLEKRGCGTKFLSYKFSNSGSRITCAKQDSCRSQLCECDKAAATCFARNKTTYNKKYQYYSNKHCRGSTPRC

SMILES	Kb
Cc1c(CC(N)=O)c2c(OCC(=O)O)cccc2n1Cc1ccccc1-c1ccccc1	140 nM
Cc1c(CC(N)=O)c2cc(OCC(=O)O)ccc2n1Cc1ccccc1	8220 nM
Cc1c(CC(=O)NN)c2cc(OCCCC(=O)O)ccc2n1Cc1ccccc1	2170 nM
Cc1c(CC(N)=O)c2c(OCC(=O)O)cccc2n1Cc1cccc(Cl)c1	190 nM
Cc1c(CC(N)=O)c2cc(OCCCCC(=O)O)ccc2n1Cc1ccccc1	8800 nM
NC(=O)Cc1c(Br)n(Cc2ccccc2)c2ccc(OCCCP(=O)(O)O)cc12 [listing 2 of 3 here]	440 nM and 1550 nM
CCc1c(CC(N)=O)c2cc(OCCCP(=O)(O)OC)ccc2n1Cc1ccccc1	340 nM
Cc1c(CC(=O)NN)c2cc(OCCCP(=O)([O-])[O-])ccc2n1Cc1ccccc1.[Na+].[Na+]	1070 nM
Cc1c(CC(N)=O)c2cc(OCCC(=O)O)ccc2n1Cc1ccccc1	3760 nM
Cc1c(CC(N)=O)c2c(OCC(=O)NN)cccc2n1Cc1ccccc1	1950 nM
CCc1c(CC(N)=O)c2cc(OCCCP(=O)(O)O)ccc2n1Cc1cccc(Cl)c1	240 nM
CCOC(=O)CCCCOc1ccc2c(CC(N)=O)c(C)n(Cc3ccccc3)c2c1	22500 nM

Now from value to molecule:

Kb	SMILES
630 nM	CSc1c(CC(N)=O)c2cc(OCCCC(=O)O)ccc2n1Cc1ccccc1
332 nM	Cc1c(CC(N)=O)c2cc(CCCC(=O)O)ccc2n1Cc1ccccc1
720 nM	Cc1c(CC(N)=O)c2cc(OCc3ccccc3C(=O)O)ccc2n1Cc1ccccc1
610 nM	NC(=O)Cc1c(Cl)n(Cc2ccccc2)c2ccc(OCCCC(=O)O)cc12
900 nM	NC(=O)Cc1c(C2CC2)n(Cc2ccccc2)c2ccc(OCCCP(=O)(O)O)cc12
530 nM	NC(=O)Cc1c(Br)n(Cc2ccccc2)c2ccc(OCCCC(=O)O)cc12
698 nM	CCc1c(CC(N)=O)c2cc(OCCCP(=O)(O)O)c(C(C)C)cc2n1Cc1ccccc1
206 nM	CCc1c(CC(N)=O)c2cc(OCCCC(=O)O)c(C)cc2n1Cc1ccccc1
124 nM	CCc1c(CC(N)=O)c2cc(SCCCC(=O)O)ccc2n1Cc1ccccc1
202 nM	CCc1c(CC(N)=O)c2cc(OCCCP(=O)(O)O)c(C)cc2n1Cc1ccccc1

biological target: T2, Phospholipase A2, membrane associated (Homo sapiens, UniProt P14555); test: Inhibition of human non-pancreatic secretory phospholipase A2 (PLA2) in a chromogenic assay; conditions: not given
T2 sequence (P14555 whole entry): T1 sequence (whole entry)

SMILES	IC50 [nM]
Cc1c(CC(N)=O)c2cc(OCC(=O)O)ccc2n1Cc1ccccc1	1790
Cc1c(CC(N)=O)c2cc(O)ccc2n1Cc1ccccc1	1020
COC(=O)COc1cccc2c1c(CC(N)=O)c(C)n2Cc1ccccc1	1380
Cc1c(CC(N)=O)c2cc(Oc3cccc(C(=O)O)c3)ccc2n1Cc1ccccc1	> 110000
Cc1c(CC(=O)NN)c2cc(OCCCC(=O)O)ccc2n1Cc1ccccc1	1020
Cc1c(CC(N)=O)c2cc(NCCC(=O)O)ccc2n1Cc1ccccc1	3370
CCCc1c(CC(N)=O)c2cc(OCCCP(=O)(O)O)ccc2n1Cc1ccccc1	6130
Cc1c(CC(N)=O)c2ccc(OCCCC(=O)NN)cc2n1Cc1ccccc1	1270
Cc1c(CC(N)=O)c2c(OCC(=O)O)cccc2n1Cc1cccc(Cl)c1	52
CCc1c(CC(N)=O)c2cc(OCCCP(=O)(OC)OC)ccc2n1Cc1ccccc1	266
Cc1c(CC(N)=O)c2ccc(OCCCC(N)=O)cc2n1Cc1ccccc1	5830
NC(=O)Cc1cn(Cc2ccccc2)c2ccc(OCP(=O)(O)O)cc12	3680
Cc1c(CC(N)=O)c2cc(OCCCCC(=O)O)ccc2n1Cc1ccccc1	1150
CCc1c(CC(N)=O)c2cc(OCCCP(=O)(O)OC)ccc2n1Cc1ccccc1	40
Cc1c(CC(=O)NN)c2cc(OCCCP(=O)([O-])[O-])ccc2n1Cc1ccccc1.[Na+].[Na+]	462
Cc1c(CCC(N)=O)c2cc(OCCCC(=O)O)ccc2n1Cc1ccccc1	6930
CCc1c(CC(N)=O)c2cc(OCc3ccccc3C(=O)O)ccc2n1Cc1ccccc1	555
Cc1c(CC(N)=O)c2c(O)cccc2n1Cc1cccc(Cl)c1	5880
Cc1c(CC(N)=O)c2cc(OCCC(=O)O)ccc2n1Cc1ccccc1	527
NC(=O)Cc1cn(Cc2ccccc2)c2cccc(OCC(=O)O)c12	321
CCc1c(C(N)=O)c2c(OCC(=O)O)cccc2n1Cc1cccc(Cl)c1	16800
CCCc1c(CC(N)=O)c2cc(O)ccc2n1Cc1ccccc1	34000
Cc1c(CC(N)=O)c2c(OCC(=O)NN)cccc2n1Cc1ccccc1	422
Cc1c(CC(N)=O)c2cc(NCCCC(=O)O)ccc2n1Cc1ccccc1	1830
NC(=O)Cc1cn(Cc2ccccc2)c2ccc(OCCCP(=O)(O)O)cc12	203
Cc1c(CC(N)=O)c2cc(OCCCC3=NNNN3)ccc2n1Cc1ccccc1	2450
CCOC(=O)CCCCOc1ccc2c(CC(N)=O)c(C)n(Cc3ccccc3)c2c1	306
Cc1c(CC(N)=O)c2c(O)cccc2n1Cc1ccccc1	8280
Cc1c(CC(=O)O)c2cc(OCCCC(=O)O)ccc2n1Cc1ccccc1	25900

The next lines start with the values.

IC50 [nM]	SMILES
180	NC(=O)Cc1cn(Cc2ccccc2)c2ccc(OCCCC(=O)O)cc12
165	NC(=O)Cc1c(Br)n(Cc2ccccc2)c2ccc(OCCCP(=O)(O)O)cc12 [listing 3 of 3 here]
162	CSc1c(CC(N)=O)c2cc(OCCCC(=O)O)ccc2n1Cc1ccccc1
155	Cc1c(CC(N)=O)c2cc(CCCC(=O)O)ccc2n1Cc1ccccc1
147	Cc1c(CC(N)=O)c2cc(OCc3ccccc3C(=O)O)ccc2n1Cc1ccccc1
143	C=CCc1c(O)ccc2c1c(CC(N)=O)c(CC)n2Cc1ccccc1
93	CSc1c(CC(N)=O)c2cc(OCCCC(N)=O)ccc2n1Cc1ccccc1
85	NC(=O)Cc1c(Br)n(Cc2ccccc2)c2cc(Cl)c(O)cc12
77	NC(=O)Cc1c(Cl)n(Cc2ccccc2)c2ccc(OCCCC(=O)O)cc12
75	Cc1cc(OCCCC(=O)O)cc2c(CC(N)=O)c(C)n(Cc3ccccc3)c12
74	NC(=O)Cc1c(C2CC2)n(Cc2ccccc2)c2ccc(OCCCP(=O)(O)O)cc12
73	NC(=O)Cc1c(Br)n(Cc2ccccc2)c2ccc(OCCCC(=O)O)cc12
59	CCc1c(CC(N)=O)c2cc(SCCC(=O)O)ccc2n1Cc1ccccc1
58	CCc1c(CC(N)=O)c2cc(SCCCP(=O)(O)O)ccc2n1Cc1ccccc1
51	Cc1cc(SCCCC(=O)O)cc2c(CC(N)=O)c(C)n(Cc3ccccc3)c12
44	NC(=O)Cc1c(C2CC2)n(Cc2ccccc2)c2ccc(OCCCC(=O)O)cc12
40	CCc1c(CC(N)=O)c2cc(OCCCP(=O)(O)O)c(C(C)C)cc2n1Cc1ccccc1
33	CCc1c(CC(N)=O)c2cc(OCCCC(=O)O)c(C)cc2n1Cc1ccccc1
33	NC(=O)Cc1c(Br)n(Cc2ccccc2)c2ccc(OCCCP(=O)(O)O)cc12 [listing 1 of 3 here]
33	CCc1c(CC(N)=O)c2cc(SCCCC(=O)O)c(C(C)C)cc2n1Cc1ccccc1
23	CCc1c(CC(N)=O)c2cc(SCCCC(=O)O)ccc2n1Cc1ccccc1
22	CCc1c(CC(N)=O)c2cc(SCCCC(=O)O)c(C)cc2n1Cc1ccccc1
15	CCc1c(CC(N)=O)c2cc(OCCCP(=O)(O)O)c(C)cc2n1Cc1ccccc1
